Our source for the TGI and GI50 values is PubChem BioAssay (NCI).

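Where inhibition never reached the appropriate level, the endpoint shown equals the highest concentration tested. Otherwise, values were interpolated linearly from a five-concentration, 48-hour dose response in 96-well plates. GI50 = concentration required for 50% inhibition of growth. At the TGI there is no net growth.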 Where only a bound is given, the exact number is not on record here.

Some test systems named below: SK-MEL-28 melanoma; A549 NSCLC; A498 renal; SK-MEL-5 melanoma; OVCAR-4 ovarian; SF-268 CNS; HT29 colon; SF-539 CNS; CAKI-1 renal; SK-MEL-2 melanoma.
Holding throughout (assay): DTP human tumour cell line panel, 48 h

Regarding `COc1ccc2[nH]c(-c3ccc(O)cc3)cc(=O)c2c1`, the TGI in the assay with SK-MEL-28 melanoma was greater than 100 µM; in the assay with A549 NSCLC, greater than 59.4 µM; in the assay with A498 renal, 0.725 µM; in the assay on SK-MEL-5 melanoma, 5.43 µM; in the assay on OVCAR-4 ovarian, greater than 100 µM; in the assay on SF-268 CNS, 20.6 µM. Besides, the TGI came out at 8.69 µM with HT29 colon and 4.32 µM in the assay with SF-539 CNS.
As for `CC(C)(C)NCC(COc1ccc([N+](=O)[O-])cc1)OP(c1ccccc1)c1ccccc1` (configuration not stated), the TGI with SK-MEL-28 melanoma is greater than 100 µM; in the assay on A549 NSCLC, greater than 100 µM; in the assay with CAKI-1 renal, greater than 100 µM; with A498 renal, greater than 100 µM; in the assay on SK-MEL-5 melanoma, 37.3 µM; in the assay with SF-268 CNS, greater than 100 µM. The TGI in the assay on SK-MEL-2 melanoma, with HT29 colon and in the assay with SF-539 CNS was greater than 100 µM in each case.
As to `O=C1c2ccccc2-c2c1c1ccccc1c(=O)n2CCNCCn1c2c(c3ccccc3c1=O)C(=O)c1ccccc1-2`, the GI50 with A549 NSCLC, in the assay on CAKI-1 renal, with A498 renal, with SK-MEL-5 melanoma, with SF-268 CNS and in the assay on SK-MEL-2 melanoma was greater than 25 µM each time. Further, in the assay on SF-539 CNS, the GI50 was greater than 25 µM. Moreover, the TGI in the assay with A549 NSCLC, in the assay on CAKI-1 renal, in the assay with A498 renal, in the assay on SK-MEL-5 melanoma, in the assay on SF-268 CNS and in the assay with SK-MEL-2 melanoma was greater than 25 µM throughout. Moreover, the TGI in the assay on SF-539 CNS is greater than 25 µM.
Turning to `Cc1cccc(N=Nc2ccc(N=Nc3c(O)ccc4ccccc34)cc2C)c1`, the TGI with SK-MEL-28 melanoma, in the assay with A549 NSCLC, in the assay with CAKI-1 renal, in the assay with SK-MEL-5 melanoma, in the assay on OVCAR-4 ovarian and with SF-268 CNS was greater than 100 µM in each case. Besides, the TGI with SK-MEL-2 melanoma, with HT29 colon and in the assay with SF-539 CNS was greater than 100 µM each time.
Take `CC1c2ccccc2N=C2SC(=S)N3CCN=C3N21` (configuration not stated): the GI50 in the assay with SK-MEL-28 melanoma was greater than 100 µM; in the assay on A549 NSCLC it was greater than 100 µM; in the assay on CAKI-1 renal, greater than 100 µM; in the assay on SK-MEL-5 melanoma, 2.25 µM; in the assay with OVCAR-4 ovarian, greater than 100 µM; in the assay on SF-268 CNS, greater than 100 µM. Moreover, the GI50 in the assay with HT29 colon and in the assay with SF-539 CNS was greater than 100 µM throughout. For the same compound, the TGI was greater than 100 µM in the assay with SK-MEL-28 melanoma; greater than 100 µM with A549 NSCLC; greater than 100 µM in the assay on CAKI-1 renal; 35.8 µM in the assay with SK-MEL-5 melanoma; greater than 100 µM with OVCAR-4 ovarian; greater than 100 µM in the assay with SF-268 CNS. Moreover, the TGI in the assay on HT29 colon and in the assay with SF-539 CNS was greater than 100 µM throughout.
In the case of `CC1(O)CCn2c(=O)c3cc4ccccc4cc3c(=O)n2C1O` (configuration not stated), the TGI with SK-MEL-28 melanoma, in the assay with A549 NSCLC, in the assay with CAKI-1 renal, in the assay on SK-MEL-5 melanoma, in the assay on SF-268 CNS and with SK-MEL-2 melanoma was greater than 100 µM in each case. Further, the TGI with HT29 colon and in the assay with SF-539 CNS was greater than 100 µM throughout.
In the case of `Cc1ccc2oc(=O)c(-c3ccccc3)nc2c1`, the TGI in the assay with SK-MEL-28 melanoma was greater than 100 µM; in the assay on A549 NSCLC, greater than 100 µM; in the assay on CAKI-1 renal, greater than 100 µM; in the assay with SK-MEL-5 melanoma, greater than 100 µM; in the assay on OVCAR-4 ovarian, 75.2 µM; in the assay with SF-268 CNS, greater than 100 µM. The TGI in the assay with SK-MEL-2 melanoma was 43.8 µM; in the assay on HT29 colon, greater than 100 µM; with SF-539 CNS, 50.5 µM.
As to `CC(C)[O-].CC(C)[O-].O=c1cccccc1[O-].O=c1cccccc1[O-].[Ti+4]`, the TGI was greater than 100 µM in the assay on SK-MEL-28 melanoma; greater than 100 µM with A549 NSCLC; greater than 100 µM with CAKI-1 renal; 69.8 µM with SK-MEL-5 melanoma; greater than 100 µM in the assay on OVCAR-4 ovarian; greater than 100 µM in the assay with SF-268 CNS. Moreover, the TGI in the assay on SK-MEL-2 melanoma and in the assay on SF-539 CNS was greater than 100 µM in each case. Further, the GI50 with SF-539 CNS was 29.3 µM.
Regarding `COc1c(O)c(OC)c2oc(-c3ccc(O)cc3)c(OC)c(=O)c2c1O`, the TGI in the assay on SK-MEL-28 melanoma is greater than 100 µM; in the assay on A549 NSCLC, greater than 100 µM; with CAKI-1 renal it was greater than 100 µM; in the assay on A498 renal, greater than 100 µM; with SK-MEL-5 melanoma it was greater than 100 µM; with SF-268 CNS, 34.1 µM. In addition, the TGI with SK-MEL-2 melanoma, in the assay on HT29 colon and with SF-539 CNS was greater than 100 µM in each case.
Take `O=C1C2=C(CCC2)Nc2cccc3ncn1c23`: the TGI with SK-MEL-28 melanoma, in the assay on A549 NSCLC, in the assay with SK-MEL-5 melanoma, in the assay with SF-268 CNS, in the assay with SK-MEL-2 melanoma and with SF-539 CNS was greater than 100 µM in each case.
On to `Cc1nc(-c2cccnc2)sc1C(=O)/C=C/c1cccc([N+](=O)[O-])c1`, for which the TGI in the assay with SK-MEL-28 melanoma, in the assay with A549 NSCLC, in the assay with CAKI-1 renal, in the assay with A498 renal, in the assay on SK-MEL-5 melanoma and in the assay with SF-268 CNS was greater than 100 µM throughout. Besides, the TGI in the assay on SK-MEL-2 melanoma, in the assay with HT29 colon and with SF-539 CNS was greater than 100 µM in each case.
On to `C=CC1=C(C)C2=NC1=CC1=NC(=CC3=C(C)C4=C(O)[C@H](C(=O)OC)C(=C5NC(=C2)[C@@H](C)[C@@H]5CCC(=O)O)C4=N3)C(CC)=C1C`, for which the TGI with SK-MEL-28 melanoma was 3.54 µM; in the assay on A549 NSCLC, greater than 43.9 µM; with CAKI-1 renal, greater than 100 µM; in the assay with SK-MEL-5 melanoma, 3.75 µM; in the assay with OVCAR-4 ovarian, 22 µM; with SF-268 CNS, greater than 100 µM. Besides, the figures for the TGI in the assay with SK-MEL-2 melanoma and in the assay with SF-539 CNS were greater than 22.2 µM and 4.63 µM, respectively.
For the compound `COc1ccc(Nc2nccc(N3CCN(c4c5ccc(Cl)cc5nc5ccc(OC)cc45)CC3)n2)cc1`, the GI50 is 39.5 µM with SK-MEL-28 melanoma; 7.51 µM in the assay with A549 NSCLC; 8.93 µM in the assay on CAKI-1 renal; 2.4 µM with A498 renal; 16.1 µM with SK-MEL-5 melanoma; 18.2 µM with OVCAR-4 ovarian. Besides, the GI50 was 11.8 µM in the assay on SF-268 CNS, 6.61 µM with HT29 colon and 22.7 µM with SF-539 CNS. Further, the TGI in the assay on SK-MEL-28 melanoma was greater than 100 µM; in the assay with A549 NSCLC it was greater than 100 µM; in the assay on CAKI-1 renal, greater than 100 µM; in the assay with A498 renal it was 31 µM; in the assay on SK-MEL-5 melanoma it was greater than 100 µM; with OVCAR-4 ovarian it was greater than 100 µM. For the same compound, the TGI in the assay on SF-268 CNS, in the assay on HT29 colon and in the assay with SF-539 CNS was greater than 100 µM throughout.
Regarding `Clc1ccc2c(c1)N(c1ncnc3ccc(-c4cnc5[nH]ncc5c4)cc13)CC2`, the GI50 with SK-MEL-28 melanoma was 0.77 µM; in the assay with A549 NSCLC it was 0.33 µM; in the assay with CAKI-1 renal, 0.316 µM; with OVCAR-4 ovarian, 0.747 µM; in the assay with SF-268 CNS, 0.538 µM; in the assay with SK-MEL-2 melanoma it was 7 µM. Further, the GI50 in the assay on HT29 colon was 0.344 µM; with SF-539 CNS, 0.645 µM. Further, the TGI in the assay with SK-MEL-28 melanoma, in the assay with A549 NSCLC, in the assay on CAKI-1 renal, in the assay on OVCAR-4 ovarian, in the assay on SF-268 CNS and with SK-MEL-2 melanoma was greater than 100 µM in each case. Moreover, the TGI in the assay with HT29 colon and in the assay on SF-539 CNS was greater than 100 µM in each case.
For the compound `C=C1C2Oc3ccccc3C1N(c1ccccc1)O2` (configuration not stated), the TGI in the assay on SK-MEL-28 melanoma was greater than 100 µM; in the assay on A549 NSCLC, greater than 100 µM; in the assay on CAKI-1 renal, greater than 100 µM; in the assay with OVCAR-4 ovarian it was 75.3 µM; in the assay on SF-268 CNS, greater than 100 µM; in the assay on SK-MEL-2 melanoma it was greater than 100 µM. In addition, the figures for the TGI with HT29 colon and in the assay on SF-539 CNS were 67.5 µM and 57.3 µM, respectively.
Take `COc1ccc2c(NCCCCCCNc3c4ccccc4nc4cc(OC)ccc34)c3ccccc3nc2c1`: the TGI was determined as 11.9 µM in the assay with A549 NSCLC; 3.39 µM with CAKI-1 renal; 5.76 µM with SK-MEL-5 melanoma; 0.461 µM with OVCAR-4 ovarian; 12.5 µM with SF-268 CNS; 1.67 µM with SK-MEL-2 melanoma. In addition, the values for the TGI in the assay on HT29 colon and with SF-539 CNS were 0.486 µM and 1.03 µM, respectively.
As to `N#CC(C#N)=c1c2nsnc2c(=C(C#N)C#N)c2nsnc12`, the TGI worked out at 3.3 µM with SK-MEL-28 melanoma; 10.3 µM in the assay with A549 NSCLC; 3.53 µM with CAKI-1 renal; 3.83 µM in the assay with OVCAR-4 ovarian; 4.26 µM with SF-268 CNS; 3.53 µM in the assay on SK-MEL-2 melanoma. Besides, the values for the TGI in the assay with HT29 colon and in the assay on SF-539 CNS were 3.2 µM and 3.46 µM, respectively.
In the case of `N#Cc1c(-c2ccco2)cc(-c2ccccc2)[nH]c1=O`, the TGI in the assay on SK-MEL-28 melanoma, in the assay on A549 NSCLC, with A498 renal, in the assay on SK-MEL-5 melanoma, with OVCAR-4 ovarian and with SF-268 CNS was greater than 100 µM each time. The TGI with HT29 colon and with SF-539 CNS was greater than 100 µM in each case.
With `Cc1ccc(NC(=O)/C(Cc2nc3ccc([N+](=O)[O-])cc3[nH]c2=O)=N\NC(=O)C[n+]2ccccc2)c(C)c1`, the TGI with SK-MEL-28 melanoma was greater than 100 µM; in the assay on A549 NSCLC, greater than 100 µM; in the assay on CAKI-1 renal it was greater than 100 µM; in the assay on SK-MEL-5 melanoma, 55.4 µM; with OVCAR-4 ovarian it was 46.6 µM; in the assay on SF-268 CNS it was greater than 100 µM. Further, the TGI in the assay on SK-MEL-2 melanoma, in the assay with HT29 colon and with SF-539 CNS was greater than 100 µM in each case.
`O=c1[nH]c2cc([N+](=O)[O-])ccc2nc1/C(=N\Nc1ccccc1)C(O)c1ccc2c(c1)OCO2` (configuration not stated): the TGI in the assay with SK-MEL-28 melanoma, in the assay on A549 NSCLC, with SK-MEL-5 melanoma, in the assay on OVCAR-4 ovarian, in the assay with SF-268 CNS and with SK-MEL-2 melanoma was greater than 100 µM throughout. Besides, the TGI in the assay with HT29 colon and in the assay with SF-539 CNS was greater than 100 µM throughout.

Usually TGI stands for the concentration at which net growth stops. High values mean lower sensitivity of the cells, low ones greater sensitivity of the cells. Broadly, the GI50 is the concentration that inhibits growth by half.
